Measurements reported in PMC3914206.

Legend:
Format in all cases: binding
Details in all cases: Compound Concentration 10 µM
panel of 442 kinases [1] = target: T1, panel of 442 kinases (Homo sapiens, UniProt Q9NWZ3)
T1 construct: purchased KINOMEscan
T1 sequence (Q9NWZ3 1-460): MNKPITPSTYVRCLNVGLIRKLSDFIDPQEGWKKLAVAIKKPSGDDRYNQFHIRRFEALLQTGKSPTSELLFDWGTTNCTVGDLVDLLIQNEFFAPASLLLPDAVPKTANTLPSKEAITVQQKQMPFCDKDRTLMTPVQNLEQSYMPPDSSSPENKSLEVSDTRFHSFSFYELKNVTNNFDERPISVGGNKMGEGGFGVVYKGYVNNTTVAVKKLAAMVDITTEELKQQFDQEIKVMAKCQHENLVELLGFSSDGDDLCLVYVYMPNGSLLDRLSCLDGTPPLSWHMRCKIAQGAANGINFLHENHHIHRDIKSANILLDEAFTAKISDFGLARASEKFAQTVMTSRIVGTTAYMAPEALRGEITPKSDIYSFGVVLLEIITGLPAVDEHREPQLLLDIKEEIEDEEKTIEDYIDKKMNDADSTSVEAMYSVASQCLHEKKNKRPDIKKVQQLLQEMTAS
Text: (§1) We assessed the selectivity of members of this scaffold using the KINOMEscan methodology across a near comprehensive panel of 442 kinases [[18,27]].

panel of 442 kinases [2] = target: T2, panel of 442 kinases (Homo sapiens, UniProt O15075)
T2 construct: purchased KINOMEscan
Text: as §1

panel of 442 kinases [3] = target: T3, panel of 442 kinases (Homo sapiens, UniProt P49759)
T3 construct: purchased KINOMEscan
Text: as §1

T3 sequence (P49759 whole entry): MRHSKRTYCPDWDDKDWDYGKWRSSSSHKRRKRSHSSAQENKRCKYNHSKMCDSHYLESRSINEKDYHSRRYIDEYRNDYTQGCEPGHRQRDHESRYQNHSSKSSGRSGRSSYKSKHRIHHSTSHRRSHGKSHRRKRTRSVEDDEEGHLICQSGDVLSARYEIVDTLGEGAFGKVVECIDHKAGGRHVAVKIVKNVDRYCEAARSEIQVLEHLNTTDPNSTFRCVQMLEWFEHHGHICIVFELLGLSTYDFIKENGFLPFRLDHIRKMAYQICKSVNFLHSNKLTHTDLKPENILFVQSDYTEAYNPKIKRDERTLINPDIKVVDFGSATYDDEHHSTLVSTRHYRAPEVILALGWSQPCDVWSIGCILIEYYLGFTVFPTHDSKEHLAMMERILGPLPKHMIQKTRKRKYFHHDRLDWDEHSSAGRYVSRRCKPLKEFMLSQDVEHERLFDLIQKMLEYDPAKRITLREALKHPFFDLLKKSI
T2 sequence (O15075 whole entry): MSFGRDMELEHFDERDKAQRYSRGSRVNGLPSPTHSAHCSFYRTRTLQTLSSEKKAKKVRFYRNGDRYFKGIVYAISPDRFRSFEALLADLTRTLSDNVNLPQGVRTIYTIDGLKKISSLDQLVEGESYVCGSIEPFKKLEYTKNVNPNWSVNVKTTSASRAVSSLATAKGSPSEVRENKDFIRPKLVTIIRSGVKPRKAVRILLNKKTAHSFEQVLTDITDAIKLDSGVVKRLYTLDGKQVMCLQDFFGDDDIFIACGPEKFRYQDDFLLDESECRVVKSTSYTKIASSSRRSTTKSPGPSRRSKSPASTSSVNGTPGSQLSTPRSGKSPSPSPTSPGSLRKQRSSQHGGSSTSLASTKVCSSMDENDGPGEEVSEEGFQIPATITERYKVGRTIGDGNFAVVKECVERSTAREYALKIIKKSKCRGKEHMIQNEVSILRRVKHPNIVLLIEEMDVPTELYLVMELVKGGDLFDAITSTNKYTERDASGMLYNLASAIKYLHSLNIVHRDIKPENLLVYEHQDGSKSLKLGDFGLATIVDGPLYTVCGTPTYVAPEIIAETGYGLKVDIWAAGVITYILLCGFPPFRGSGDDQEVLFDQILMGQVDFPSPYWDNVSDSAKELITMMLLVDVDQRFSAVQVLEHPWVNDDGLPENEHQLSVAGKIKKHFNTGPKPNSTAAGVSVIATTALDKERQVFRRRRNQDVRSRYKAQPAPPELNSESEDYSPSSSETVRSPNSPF

| Compound | KINOMEscan: IRAK4 (panel of 442 kinases [1]) | KINOMEscan: DCAMKL1 (panel of 442 kinases [2]) | KINOMEscan: CLK1 (panel of 442 kinases [3]) |
| --- | --- | --- | --- |
| COc1cc(C(=O)N2CCC(N3CCN(C)CC3)CC2)ccc1Nc1ncc2c(n1)N(C)c1ccccc1C(=O)N2C [15 (LRRK2-IN-1)] | 83 | 4.2 | 28 |
| COc1cc(C(=O)N2CCC(N3CCN(C)CC3)CC2)ccc1Nc1ncc2c(n1)N1CCc3cccc(c31)C(=O)N2C [Compound 24] | – | 6.4 | 11 |
| COc1cc(C(=O)N2CCC(N3CCN(C)CC3)CC2)ccc1Nc1ncc2c(n1)N(C1CCCC1)c1ccccc1C(=O)N2C [Compound 25, 11-cyclopentyl-2-((2-methoxy-4-(4-(4-methylpiperazin-1-yl)piperidine-1-carbonyl)phenyl)amino)-5-methyl-5H-benzo[e]pyrimido[5,4-b][1,4]diazepin-6(11H)-one] | 100 | 8.4 | 100 |
| CCOc1cc(C(=O)N2CCC(N3CCN(C)CC3)CC2)ccc1Nc1ncc2c(n1)N(C1CCCC1)c1ccccc1C(=O)N2C [Compound 26] | 100 | – | 100 |
